Data from patent US10144929B2, “Polypeptide inhibitors of Smad3 polypeptide activities” (Mayo Foundation for Medical Education and Research, priority 2016, dated 2018).

Key:
AKR-2B cells = experiment: Soft agar colony formation (anchorage-independent growth, AIG); type: cell-based; conditions: 1.5 μM polypeptide, TGFβ 10 ng/mL, seven days
Method: FIGS. 2A-C. TAT-SH3 inhibits Smad3-dependent responses. (A) AKR-2B cells were transiently transfected with a Smad3 (3TP), Smad2 (ARE), or Smad1/5/8 (BRE) reporter construct, and luciferase activity determined following 12 hours incubation in the absence (−) or presence (+) of the indicated ligand (5 ng/mL TGFβ; 10 ng/mL BMP4) or TAT-SNX9(SH3) fusion polypeptide (1.5 μM). Data represent the mean+/−SEM of three experiments. (B) RT-PCR analysis of Smad3 (PAI-1 and CTGF) and Smad2 (MMP2) responsive gene following 24 hour treatment of AKR-2B cells with the indicated concentration of TAT-SNX9(SH3) fusion polypeptide or 5 ng/mL TGFβ. Loading was verified by GAPDH expression. (C) Soft agar colony formation was performed following seven days growth in the presence (+) or absence (−) of TGFβ (10 ng/mL) or the indicated TAT-SNX9(SH3) fusion polypeptide (1.5 μM). […]
FIGS. 3A-E. Inhibition of Smad3 signaling by a defined region of the SH3 domain in SNX9. […] (B) Nuclear fractions were prepared and assessed as in FIG. 1B following transduction with the indicated TAT-SNX9(SH3) fusion polypeptide (Left). Quantitation (mean+/−sd) of nuclear pSmad2 or pSmad3 from 2 experiments (Right). (C) Immunofluorescence of nuclear Smad3 was determined as in FIG. 1C from 30 cells in each of two experiments in the absence (−) or presence (+) of 5 ng/mL TGFβ and the indicated TAT-SNX9(SH3) fusion polypeptide (1.5 μM). […]

[1] = system: Normal human lung fibroblasts (NHLF) or lung fibroblasts from idiopathic pulmonary fibrosis (IPF) patients; experiment: Profibrotic responses in human lung fibroblasts (F-actin, Western, qPCR); type: cell-based; conditions: TGFβ 5 ng/mL 24 hours
Method: FIGS. 11A-C. TAT-SH3-2 inhibits profibrotic responses in human lung fibroblasts. (A) Normal human lung fibroblasts (NHLF) or lung fibroblasts from idiopathic pulmonary fibrosis (IPF) patients were transduced with the indicated TAT polypeptide. TGFβ (5 ng/mL) or SB431542 (10 μM) was then added for an additional 24 hours. Images were obtained on a LSM510 confocal microscope following F-actin labeling with phalloidin-TRITC and DAPI nuclei staining. Scale bar: 10 μm. (B) Western analysis for the indicated polypeptides (α-SMA, alpha smooth muscle actin; CTGF, connective tissue growth factor; and GAPDH, glyceraldehyde phosphate dehydrogenase) subsequent to TAT polypeptide transduction and 24 hour treatment in the absence (−) or presence (+) of TGFβ (5 ng/mL) or SB431542 (10 μM). (C) NHLF or IPF fibroblasts were treated as in (A), and qPCR was performed as described herein. Results represent mean±SEM from three independent experiments. *P<0.05, **P<0.005, *** P<0.001.
Normal human lung fibroblasts (NHLF) or lung fibroblasts from idiopathic pulmonary fibrosis (IPF) patients were transduced with the indicated TAT polypeptide. TGFβ (5 ng/mL) or SB431542 (10 μM) was then added for an additional 24 hours. Images were obtained on a LSM510 confocal microscope following F-actin labeling with phalloidin-TRITC and DAPI nuclei staining. […]

## TAT-SH3-2: TAT-SNX9(SH3) fusion polypeptide having SNX9 amino acids 21-51 (31 mer) (TVNEGEIITITNPDVGGGWLEGRNIKGERGL; left off: small tags and cut ends)
AKR-2B cells
  TGFβ-stimulated anchorage-independent growth in soft agar (AIG): prevented
[1]
  profibrotic responses in human lung fibroblasts: inhibited profibrotic responses
